Results as given in PubChem BioAssay AID1963958 (Molecular Pharmacology Branch, DTP, NCI, 2024).
One block for each molecule: values may come before it.

System: MDA-MB-231 multicell spheroids, viability
Assay: Anticancer human tumor MDA-MB-231 cell line growth inhibition [PI3K];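 further: spheroids exposed to agents for seven days before reading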;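 on viability, T/C: percent of vehicle control luminescence with DMSO treated spheroids as 100%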
Conditions: for IC50: curve of first compound; for viability, T/C: stronger effect = lower value
Procedure, shortened: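 High-throughput combination screen: PI3K inhibitors crossed with targeted small molecules on complex spheroids of tumor cells, HUVEC and MSCs at 37 degrees C, 5% CO2. Top concentration was at or near clinical Cmax (otherwise 10 microM), with half-log decrements.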

[1] = second compound 0.0316 µM, first compound 0.00316 µM
[2] = second compound 0.0316 µM, first compound 0.01 µM
[3] = second compound 0.0316 µM, first compound 0.0316 µM
[4] = second compound 0.0316 µM, first compound 0.1 µM
[5] = second compound 0.0316 µM, first compound 0.316 µM
[6] = second compound 0.0316 µM, first compound 1 µM
[7] = second compound 0.1 µM, first compound 0.00316 µM
[8] = second compound 0.1 µM, first compound 0.01 µM
[9] = second compound 0.1 µM, first compound 0.0316 µM
[10] = second compound 0.1 µM, first compound 0.1 µM
[11] = second compound 0.1 µM, first compound 0.316 µM
[12] = second compound 0.1 µM, first compound 1 µM
[13] = second compound 0.316 µM, first compound 0.00316 µM
[14] = second compound 0.316 µM, first compound 0.01 µM
[15] = second compound 0.316 µM, first compound 0.0316 µM
[16] = second compound 0.316 µM, first compound 0.1 µM
[17] = second compound 0.316 µM, first compound 0.316 µM
[18] = second compound 0.316 µM, first compound 1 µM
[19] = second compound 1 µM, first compound 0.00316 µM
[20] = second compound 1 µM, first compound 0.01 µM
[21] = second compound 1 µM, first compound 0.0316 µM
[22] = second compound 1 µM, first compound 0.1 µM
[23] = second compound 1 µM, first compound 0.316 µM
[24] = second compound 1 µM, first compound 1 µM
[25] = second compound 3.16 µM, first compound 0.00316 µM
[26] = second compound 3.16 µM, first compound 0.01 µM
[27] = second compound 3.16 µM, first compound 0.0316 µM
[28] = second compound 3.16 µM, first compound 0.1 µM
[29] = second compound 3.16 µM, first compound 0.316 µM
[30] = second compound 3.16 µM, first compound 1 µM
[31] = second compound 10 µM, first compound 0.00316 µM
[32] = second compound 10 µM, first compound 0.01 µM
[33] = second compound 10 µM, first compound 0.0316 µM
[34] = second compound 10 µM, first compound 0.1 µM
[35] = second compound 10 µM, first compound 0.316 µM
[36] = second compound 10 µM, first compound 1 µM

IC50 (second compound 0.0316 µM): 261 nM
IC50 (second compound 0.1 µM): 89.3 nM
IC50 (second compound 0.316 µM): 30.9 nM
IC50 (second compound 1 µM): 20.2 nM
IC50 (second compound 3.16 µM): 23.6 nM
IC50 (second compound 10 µM): 13.7 nM
Structure (SMILES): CCN1CCN(Cc2ccc(Nc3ncc(F)c(-c4cc(F)c5nc(C)n(C(C)C)c5c4)n3)nc2)CC1 + Cc1nc(NC(=O)N2CCCC2C(N)=O)sc1-c1ccnc(C(C)(C)C(F)(F)F)c1
viability, T/C [1]: 90.9%
viability, T/C [2]: 75.5%
viability, T/C [3]: 66.3%
viability, T/C [4]: 54.2%
viability, T/C [5]: 45.3%
viability, T/C [6]: 49.6%
viability, T/C [7]: 82.4%
viability, T/C [8]: 74.1%
viability, T/C [9]: 59.8%
viability, T/C [10]: 50.5%
viability, T/C [11]: 40.8%
viability, T/C [12]: 46.4%
viability, T/C [13]: 72.3%
viability, T/C [14]: 66.7%
viability, T/C [15]: 50.3%
viability, T/C [16]: 40.9%
viability, T/C [17]: 41.3%
viability, T/C [18]: 47.9%
viability, T/C [19]: 65.8%
viability, T/C [20]: 57.3%
viability, T/C [21]: 45.8%
viability, T/C [22]: 40.2%
viability, T/C [23]: 40%
viability, T/C [24]: 47.7%
viability, T/C [25]: 66.2%
viability, T/C [26]: 58.6%
viability, T/C [27]: 47.7%
viability, T/C [28]: 41.6%
viability, T/C [29]: 37.6%
viability, T/C [30]: 48.4%
viability, T/C [31]: 66.2%
viability, T/C [32]: 53.2%
viability, T/C [33]: 44.4%
viability, T/C [34]: 42%
viability, T/C [35]: 39.4%
viability, T/C [36]: 47.5%

IC50 (second compound 0.0316 µM): > 10000 nM
IC50 (second compound 0.1 µM): 3770 nM
IC50 (second compound 0.316 µM): 860 nM
IC50 (second compound 1 µM): 352 nM
IC50 (second compound 3.16 µM): 94.7 nM
IC50 (second compound 10 µM): < 31.6 nM
Structure (SMILES): C[C@@H](NC(=O)c1ncnc(N)c1Cl)c1ncc(C(=O)Nc2cc(C(F)(F)F)c(Cl)cn2)s1 + Cc1nc(NC(=O)N2CCCC2C(N)=O)sc1-c1ccnc(C(C)(C)C(F)(F)F)c1
viability, T/C [3]: 112%
viability, T/C [4]: 77.8%
viability, T/C [5]: 75%
viability, T/C [6]: 72.1%
viability, T/C (second compound 0.0316 µM, first compound 3.16 µM): 61.3%
viability, T/C (second compound 0.0316 µM, first compound 10 µM): 44.9%
viability, T/C [9]: 99.4%
viability, T/C [10]: 77.2%
viability, T/C [11]: 61.8%
viability, T/C [12]: 67.7%
viability, T/C (second compound 0.1 µM, first compound 3.16 µM): 53.6%
viability, T/C (second compound 0.1 µM, first compound 10 µM): 41.3%
viability, T/C [15]: 81%
viability, T/C [16]: 63.7%
viability, T/C [17]: 53.9%
viability, T/C [18]: 50.2%
viability, T/C (second compound 0.316 µM, first compound 3.16 µM): 49.9%
viability, T/C (second compound 0.316 µM, first compound 10 µM): 37.1%
viability, T/C [21]: 74.8%
viability, T/C [22]: 61%
viability, T/C [23]: 47.1%
viability, T/C [24]: 44.8%
viability, T/C (second compound 1 µM, first compound 3.16 µM): 38.8%
viability, T/C (second compound 1 µM, first compound 10 µM): 29.2%
viability, T/C [27]: 60.2%
viability, T/C [28]: 48.7%
viability, T/C [29]: 40.6%
viability, T/C [30]: 37.7%
viability, T/C (second compound 3.16 µM, first compound 3.16 µM): 35.7%
viability, T/C (second compound 3.16 µM, first compound 10 µM): 27.4%
viability, T/C [33]: 42.3%
viability, T/C [34]: 37.2%
viability, T/C [35]: 32.3%
viability, T/C [36]: 30.9%
viability, T/C (second compound 10 µM, first compound 3.16 µM): 24.6%
viability, T/C (second compound 10 µM, first compound 10 µM): 14.9%

IC50 (second compound 0.0316 µM): > 100 nM
IC50 (second compound 0.1 µM): > 100 nM
IC50 (second compound 0.316 µM): > 100 nM
IC50 (second compound 1 µM): > 100 nM
IC50 (second compound 3.16 µM): > 100 nM
IC50 (second compound 10 µM): > 100 nM
Structure (SMILES): Cn1ncnc1[C@H]1c2n[nH]c(=O)c3cc(F)cc(c23)N[C@@H]1c1ccc(F)cc1 + Cc1nc(NC(=O)N2CCCC2C(N)=O)sc1-c1ccnc(C(C)(C)C(F)(F)F)c1
viability, T/C (second compound 0.0316 µM, first compound 0.000316 µM): 89.3%
viability, T/C (second compound 0.0316 µM, first compound 0.001 µM): 88.9%
viability, T/C [1]: 86.8%
viability, T/C [2]: 83.4%
viability, T/C [3]: 79%
viability, T/C [4]: 72.6%
viability, T/C (second compound 0.1 µM, first compound 0.000316 µM): 88.4%
viability, T/C (second compound 0.1 µM, first compound 0.001 µM): 82%
viability, T/C [7]: 77.5%
viability, T/C [8]: 68.7%
viability, T/C [9]: 65%
viability, T/C [10]: 63.2%
viability, T/C (second compound 0.316 µM, first compound 0.000316 µM): 67.2%
viability, T/C (second compound 0.316 µM, first compound 0.001 µM): 75.2%
viability, T/C [13]: 65.6%
viability, T/C [14]: 64.1%
viability, T/C [15]: 59.7%
viability, T/C [16]: 53.5%
viability, T/C (second compound 1 µM, first compound 0.000316 µM): 68.3%
viability, T/C (second compound 1 µM, first compound 0.001 µM): 66%
viability, T/C [19]: 65.1%
viability, T/C [20]: 60%
viability, T/C [21]: 55.2%
viability, T/C [22]: 49.7%
viability, T/C (second compound 3.16 µM, first compound 0.000316 µM): 64.5%
viability, T/C (second compound 3.16 µM, first compound 0.001 µM): 63.4%
viability, T/C [25]: 64.5%
viability, T/C [26]: 54%
viability, T/C [27]: 54.6%
viability, T/C [28]: 50.4%
viability, T/C (second compound 10 µM, first compound 0.000316 µM): 66%
viability, T/C (second compound 10 µM, first compound 0.001 µM): 63.4%
viability, T/C [31]: 56%
viability, T/C [32]: 59.8%
viability, T/C [33]: 54.4%
viability, T/C [34]: 48.8%
